{"source": "patent US6984655B1", "about": "“Photodynamic therapy for selectively closing neovasa in eyeground tissue” (Meiji Seika Kaisha, Ltd., priority 2000, dated 2006)", "key": {"[1]": {"system": "vascular walls of retinal normal vascular vessels and choroidal neovascular vessels (CNV)", "assay": "infrared fluorescence fundus angiography after co-injection of ICG and NPe6 (Test Example 5)", "format": "in vivo, monkeys of the genus Macaca", "settings": "ICG 0.5 mg/kg co-injected with NPe6 0.5 mg/kg", "from_the_text": "The 664 nm-laser light as irradiated was irradiated at an irradiance of 0.68 W/cm^2 for 300 second so that the fluence was of 204 J/cm^2."}, "[2]": {"system": "vascular walls of retinal normal vascular vessels and choroidal neovascular vessels (CNV)", "assay": "infrared fluorescence fundus angiography of ICG (790 nm excitation) in monkeys having experimental CNV", "format": "in vivo, monkeys of the genus Macaca", "settings": "for infrared fluorescence in CNV / infrared fluorescence in retinal normal vascular vessels: ICG 0.5 mg/kg iv", "from_the_text": "In these experiments, the time-dependent changes in the concentrations of ICG having distributed and remaining in the vascular walls of the retinal normal vascular vessels and in the vascular walls of the choroidal neovascular vessels (CNV) in the ocular fundus of the monkeys were examined by a process wherein a beam of laser light containing a light of 790 nm-wavelength (as emitted from a semiconductor type laser generator) was used as an excitation light, and wherein the changes in the intensity of the infrared fluorescence emitted from the ICG as excited within said vascular walls were continuously recorded by photographs by means of an infrared light fundus camera apparatus (of modified TCR 50-IA type, manufactured by Topcon Co., Japan) for the infrared fluorescence fundus angiography for diagnosing the ocular fundus, and wherein the photographed images of the fundus were observed visually.\nIn the same manner as in the above Test Example 1, the neovasculature lesions comprising the experimental choroidal neovascular vessels (CNV) were produced in the ocular fundi of monkeys of the genus Macaca, according to the modified Ryan's method.\nAn aqueous solution of ICG dissolved in distilled water for the injections at a concentration of 5.0 mg/ml of ICG was intravenously injected at a dose of ICG of 0.5 mg/kg at a vein in the lower limbs of the monkeys having the neovasculature lesions in the retina of the eye.\nImmediately after the time of the intravenous injection of ICG, the ocular fundi of the monkeys were continuously observed under irradiation of the beam of laser light containing a light of 790 nm-wavelength by means of an infrared light camera apparatus (of a modified TCR 50-IA type, manufactured by Topcon Co.) for infrared fluorescence fundus the angiography for diagnosing the ocular fundus.\nTo these test monkeys was intravenously injected ICG at a dose of 1 mg/kg in the same way as in Test Example 3. Immediately after the time of the intravenous injection of ICG, the ocular fundi of the monkeys were continuously observed by means of an infrared light fundus camera apparatus (of modified TCR 50 type, manufactured by Topcon Co., Ltd.) for the infrared fluorescence fundus angiography for diagnosing the ocular fundus. The observation with the fundus camera was made under irradiation of the ocular fundi with the laser light containing a light of 790 nm-wavelength. There was recorded the time point at which the infrared fluorescence of ICG was eliminated entirely from the retinal normal vascular vessels."}, "[3]": {"system": "vascular walls of retinal normal vascular vessels and choroidal neovascular vessels (CNV)", "assay": "fluorescence fundus angiography of NPe6 red fluorescence (488 nm excitation) in monkeys having experimental CNV", "format": "in vivo, monkeys of the genus Macaca", "settings": "for time point at which red fluorescence was substantially entirely eliminated from retinal normal vascular vessels while CNV lesions continued to emit: Test Example 2", "description": "The detailed procedures of the above experiments are as follows. Thus, a beam of a laser light of 647 nm wavelenght as emitted from a krypton laser generator [Coherent Medical Laser generator, manufactured by Novua Omni Co.; having an output of 500 to 900 mW] was irradiated as a laser-irradiating spot of a diameter of 50 μm onto the ocular fundi of 8 mature monkeys of the genus Macaca (of body weights of 3.5 kg to 6.0 kg) for 0.1 seconds, according to a modification of the Ryan's method [Arch. Ophthalmol., vol 100; pp. 1804–1809 (1982)]. It is said that the resulting damage in the Bruch's membrane, which were incurred by the irradiation of the 647 nm laser light, is very effective for the incidence of ocular neovascular vessels. Thereby, there were induced the experimental choroidal neovascular vessels (abbreviated as CNV). The induced CNV are the neovascular vessels as branched from the choroidal normal vascular vessels in the ocular fundus. Such CNV have infiltrated in the subretinal space, namely the space between the sensory retina and choroids, to involve the occurrence of exudation, bleeding and retinal detachment. The formation of the neovasculature lesions comprising the CNV was confirmed by a process which comprised intravenously injecting fluorescein or indocyanine green to the so treated monkeys and subsequently carrying out the diagnosis method according to a fluorescence fundus angiography of the ocular fundus.\nIn the course of said irradiation of 488 nm laser light beam for 10 minutes, the images of the red fluorescence as emitted in the ocular fundus were recorded by photography on a video tape by means of a high-sensitivity television fundus camera apparatus. Thereafter, at intervals of 10 minutes, a beam of 488 nm laser light was repeatedly irradiated to the ocular fundus each for about one minute. At each of the irradiations of the 488 nm laser light beam, the images of the red fluorescence emitted from the vascular vessels of the ocular fundus were recorded on the video tape. […] The images of the fluorescence emitted from the ocular fundus vascular vessels were then reproduced from the recording video tape for the purpose of observation.\nDuring this 10 minutes-irradiation of the 488 nm-laser light to the ocular fundi, the images of the red fluorescence emitted from the ocular fundi were recorded by photography on a video tape by means of a high-sensitivity television fundus camera.\nDuring this irradiation of the 488 nm-laser light, the images of the red fluorescences emitted from the retinal normal vascular vessels and from the choroidal neovascular vessels were observed by an apparatus for the fluorescence ocular fundus angiography of the ocular fundus (namely, an infrared light fundus camera)."}, "[4]": {"system": "experimental choroidal neovascular vessels (CNV)", "assay": "PDT with NPe6 timed by prior ICG angiography (Test Example 4)", "method": "To these test monkeys was intravenously injected ICG at a dose of 1 mg/kg in the same way as in Test Example 3. Immediately after the time of the intravenous injection of ICG, the ocular fundi of the monkeys were continuously observed by means of an infrared light fundus camera apparatus (of modified TCR 50 type, manufactured by Topcon Co., Ltd.) for the infrared fluorescence fundus angiography for diagnosing the ocular fundus. The observation with the fundus camera was made under irradiation of the ocular fundi with the laser light containing a light of 790 nm-wavelength. There was recorded the time point at which the infrared fluorescence of ICG was eliminated entirely from the retinal normal vascular vessels. The time-gap which was extended between the aforesaid time point as recorded for the entire elimination of the infrared fluorescence of IGC and the time of the intravenous injection of ICG was calculated in a unit of “minutes” or “second”, whereby it was estimated that said time-gap was 30 minutes. • (b) Time was allowed to pass until the infrared fluorescence of ICG was eliminated entirely from the neovasculature lesions in the ocular fundi of the test monkeys. […] The 664 nm-laser light as irradiated was irradiated at an irradiance of 0.57 W/cm2 for 180 seconds so that the fluence was of 102.6 J/cm^2. […]"}, "[5]": {"system": "ocular fundus tissue with choroidal neovascular vessels (CNV)", "assay": "fluorescence microscopy of cross-section samples of enucleated eyeballs", "format": "in vivo, monkeys of the genus Macaca", "settings": "20 mg/kg iv, eyeballs enucleated 65 to 70 minutes after injection, excitation 380 to 420 nm", "description": "These cut pieces of the eyeballs were frozen in a bath of liquid nitrogen. Cross-section samples each having a thickness of 5 μm were prepared from the ocular fundus tissue region of the frozen pieces of the eyeballs."}, "CD-1 (male) mice": {"system": "CD-1 (male) mice", "assay": "acute toxicity test (LD50)", "format": "in vivo"}, "[6]": {"system": "experimental choroidal neovascular vessels (CNV)", "settings": "optical microscope, pathological examination", "from_the_text": "In the experiments of this Test Example 2, there were used 31 neovasculature lesions chosen from among the neovasculature lesions which comprised the experimental choroidal neovascular vessels (CNV) as produced in the ocular fundi of the monkeys of the genus Macaca by the modified Ryan's method set out in the Test Example 1 above.\nThe 664 nm-laser light was irradiated for 300 seconds at a fluence of 204 J/cm^2.\nThe laser light was irradiated for 60 to 300 seconds at different fluences.\nThe 664 nm-laser light was irradiated at different fluences for 60 seconds or for 10 seconds. […]\nAfter the treatment with the irradiation of 664 nm-laser light was terminated, the test monkeys having the neovasculature lesions, either treated or untreated, were fed for 1 week under routine feeding conditions. After the feeding for one week, the effects of the above treatments were judged by a fluorescence fundus angiography with fluorescein and by a fluorescence fundus angiography with indocyanine green (ICG). […] For the fluorescence fundus angiography with ICG, the ocular fundi of the monkeys were observed and diagnosed by means of SLO or by means of an infrared light fundus camera apparatus for the infrared ocular fundus angiography, after the intravenous injection of ICG. […]"}, "[7]": {"settings": "about 7 to 8 minutes after injection"}, "[8]": {"settings": "20 minutes after administration"}, "[9]": {"settings": "0.5 mg/kg iv, 20 minutes after injection"}, "[10]": {"settings": "1.0 mg/kg iv, 30 minutes after injection"}, "[11]": {"settings": "20 mg/kg iv, 7.5 minutes after injection"}, "[12]": {"settings": "20 mg/kg iv, 20 minutes after injection"}, "[13]": {"settings": "20 mg/kg iv, 60 minutes after injection"}}, "data": [{"compound": "CC1(C)C(/C=C/C=C/C=C/C=C2\\N(CCCCS(=O)(=O)O)c3ccc4ccccc4c3C2(C)C)=[N+](CCCCS(=O)(=O)[O-])c2ccc3ccccc3c21", "note": "[ICG, indocyanine green]", "values": [{"measurement": "infrared fluorescence of ICG in retinal normal vascular vessels", "setting": "[1]; 20 minutes after injection", "value": "decreased to a poor intensity"}, {"measurement": "infrared fluorescence of ICG in vascular walls of CNV", "setting": "[1]; 20 minutes after injection", "value": "retained at a prominent and apreciable intensity"}, {"measurement": "infrared fluorescence of ICG in retinal normal vascular vessels", "setting": "[1]; [7]", "value": "observed at a prominent and appreciable intensity"}, {"measurement": "infrared fluorescence in CNV", "setting": "[2]; [8]", "value": "increased to a prominent and appreciable intensity"}, {"measurement": "infrared fluorescence in retinal normal vascular vessels", "setting": "[2]; [8]", "value": "had decreased"}, {"measurement": "infrared fluorescence in CNV", "setting": "[2]; [7]", "value": "a slight but appreciable intensity"}, {"measurement": "infrared fluorescence in retinal normal vascular vessels", "setting": "[2]; [7]", "value": "observed at a prominent and appreciable intensity"}, {"measurement": "time-gap between intravenous injection and entire elimination of infrared fluorescence from retinal normal vascular vessels", "setting": "[2]; ICG 1 mg/kg iv", "value": 30, "unit": "min"}]}, {"compound": "C=Cc1c(C)c2cc3nc(c(CC(=O)N[C@@H](CC(=O)[O-])C(=O)[O-])c4[nH]c(cc5nc(cc1[nH]2)C(C)=C5CC)c(C)c4C(=O)[O-])[C@@H](CCC(=O)[O-])[C@@H]3C.[Na+].[Na+].[Na+].[Na+]", "note": "[NPe6, mono-L-aspartyl chlorin e6 tetra-sodium salt]", "values": [{"measurement": "red fluorescence in CNV", "setting": "[3]; [9]", "value": "confirmably observed at a slight but appreciable intensity"}, {"measurement": "red fluorescence in retinal normal vascular vessels", "setting": "[3]; [9]", "value": "substantially entirely been eliminated and disappeared"}, {"measurement": "time point at which red fluorescence was substantially entirely eliminated from retinal normal vascular vessels while CNV lesions continued to emit", "setting": "[3]; 0.5 mg/kg iv", "value": 20, "unit": "min"}, {"measurement": "red fluorescence in CNV", "setting": "[3]; [10]", "value": "confirmed at a significant and appreciable intensity"}, {"measurement": "red fluorescence in retinal normal vascular vessels", "setting": "[3]; [10]", "value": "substantially entirely been eliminated"}, {"measurement": "time point at which red fluorescence was substantially entirely eliminated from retinal normal vascular vessels while CNV lesions continued to emit", "setting": "[3]; 1 mg/kg iv", "value": 30, "unit": "min"}, {"measurement": "time point at which red fluorescence was substantially entirely eliminated from retinal normal vascular vessels while CNV lesions continued to emit", "setting": "[3]; 2 mg/kg iv", "value": 60, "unit": "min"}, {"measurement": "time point at which red fluorescence was substantially entirely eliminated from retinal normal vascular vessels while CNV lesions continued to emit", "setting": "[3]; 10 mg/kg iv", "value": 60, "unit": "min"}, {"measurement": "red fluorescence in vascular walls of CNV", "setting": "[3]; [11]", "value": "observable slightly but detectable at its weak intensity"}, {"measurement": "red fluorescence in vascular walls of retinal normal vascular vessels", "setting": "[3]; [11]", "value": "appreciably observable at its prominent intensity"}, {"measurement": "red fluorescence in CNV", "setting": "[3]; [12]", "value": "remain at a higher and prominently observable intensity"}, {"measurement": "red fluorescence in retinal normal vascular vessels", "setting": "[3]; [12]", "value": "decreased to a lower and hardly detectable intensity"}, {"measurement": "red fluorescence in CNV", "setting": "[3]; [13]", "value": "observed at a high and prominent intensity"}, {"measurement": "red fluorescence in retinal normal vascular vessels", "setting": "[3]; [13]", "value": "never observable"}, {"measurement": "time of peak NPe6 concentration in vascular walls of CNV after intravenous injection", "setting": "[3]; monkeys with experimental CNV", "value": "about 20 minutes"}, {"measurement": "permeation into normal parenchymal tissue of the ocular retina", "setting": "[3]; monkeys, intravenous", "value": "never permeate"}, {"measurement": "number of treated neovasculature lesions whose CNV were successfully occluded", "setting": "[4]; NPe6 1 mg/kg iv after ICG cleared, irradiation started 30 min, 0.57 W/cm2, 180 s, 102.6 J/cm^2, 3 lesions treated, judged after one week", "value": 3}, {"measurement": "state of adjacent retinal normal vascular vessels, retinal parenchymal tissue and choroidal normal vascular vessels", "setting": "[4]; NPe6 1 mg/kg iv, 664 nm-laser 102.6 J/cm^2, judged after one week", "value": "could remain intact"}, {"measurement": "red fluorescence at CNV in cross-section samples", "setting": "[5]", "value": "observed confirmably at a significant intensity"}, {"measurement": "red fluorescence at retinal normal vascular vessels in cross-section samples", "setting": "[5]", "value": "only a very slight degree of the red fluorescence"}, {"measurement": "red fluorescence in cross-section samples of retinal parenchymal region", "setting": "[5]", "value": "almost not observable"}, {"measurement": "LD50", "setting": "CD-1 (male) mice", "value": 164, "unit": "mg/kg"}, {"measurement": "state of retinal and choroidal normal vascular vessels adjacent to the occluded CNV", "setting": "[6]", "value": "remaining intact or nearly intact"}]}]}
